These results are taken from ChEMBL document CHEMBL4665758, “Identification of 5H-chromeno[3,4-c]pyridine and 6H-isochromeno[3,4-c]pyridine derivatives as potent and selective dual ROCK inhibitors” (Bioorg Med Chem Lett, 2020).

The target in assay [1] is Rho-associated protein kinase 1 (Homo sapiens, UniProt Q13464).
Assay [2] addresses Rho-associated protein kinase 2 (Homo sapiens, UniProt O75116).

Chain of Rho-associated protein kinase 1 (Q13464 whole entry): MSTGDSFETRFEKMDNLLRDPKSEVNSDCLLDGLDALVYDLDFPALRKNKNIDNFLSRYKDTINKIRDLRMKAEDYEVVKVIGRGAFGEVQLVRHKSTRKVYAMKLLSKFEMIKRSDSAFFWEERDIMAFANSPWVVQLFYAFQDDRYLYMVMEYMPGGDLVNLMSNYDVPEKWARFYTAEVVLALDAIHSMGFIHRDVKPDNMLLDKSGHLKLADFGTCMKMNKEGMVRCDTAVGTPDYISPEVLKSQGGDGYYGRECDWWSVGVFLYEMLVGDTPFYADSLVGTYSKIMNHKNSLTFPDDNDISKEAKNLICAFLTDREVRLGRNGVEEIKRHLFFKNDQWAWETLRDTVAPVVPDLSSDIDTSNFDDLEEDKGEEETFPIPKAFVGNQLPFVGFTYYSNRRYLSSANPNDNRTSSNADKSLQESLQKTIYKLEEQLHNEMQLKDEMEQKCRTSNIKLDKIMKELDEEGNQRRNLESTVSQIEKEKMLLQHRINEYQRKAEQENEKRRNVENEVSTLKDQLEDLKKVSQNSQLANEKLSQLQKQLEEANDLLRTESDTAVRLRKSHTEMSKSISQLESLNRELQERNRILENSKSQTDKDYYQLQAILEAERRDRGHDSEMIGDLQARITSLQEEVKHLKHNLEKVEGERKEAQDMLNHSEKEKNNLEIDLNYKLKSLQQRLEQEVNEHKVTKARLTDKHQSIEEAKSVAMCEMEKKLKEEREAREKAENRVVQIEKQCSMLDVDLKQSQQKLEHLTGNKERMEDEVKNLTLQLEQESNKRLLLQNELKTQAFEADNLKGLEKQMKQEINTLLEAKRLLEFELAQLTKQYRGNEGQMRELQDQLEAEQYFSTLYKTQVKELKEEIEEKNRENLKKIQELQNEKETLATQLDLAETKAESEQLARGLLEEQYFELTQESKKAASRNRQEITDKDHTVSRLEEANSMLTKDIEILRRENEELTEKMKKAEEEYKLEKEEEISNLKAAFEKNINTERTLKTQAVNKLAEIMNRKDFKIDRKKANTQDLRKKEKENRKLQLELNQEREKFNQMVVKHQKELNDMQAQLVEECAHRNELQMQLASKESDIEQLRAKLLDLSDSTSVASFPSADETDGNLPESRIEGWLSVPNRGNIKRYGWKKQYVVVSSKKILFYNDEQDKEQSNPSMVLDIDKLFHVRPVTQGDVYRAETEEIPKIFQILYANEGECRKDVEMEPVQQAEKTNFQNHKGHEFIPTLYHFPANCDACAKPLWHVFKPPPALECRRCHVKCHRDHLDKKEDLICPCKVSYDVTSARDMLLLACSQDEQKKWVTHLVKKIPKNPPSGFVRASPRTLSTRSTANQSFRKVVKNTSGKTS
Chain of Rho-associated protein kinase 2 (O75116 whole entry): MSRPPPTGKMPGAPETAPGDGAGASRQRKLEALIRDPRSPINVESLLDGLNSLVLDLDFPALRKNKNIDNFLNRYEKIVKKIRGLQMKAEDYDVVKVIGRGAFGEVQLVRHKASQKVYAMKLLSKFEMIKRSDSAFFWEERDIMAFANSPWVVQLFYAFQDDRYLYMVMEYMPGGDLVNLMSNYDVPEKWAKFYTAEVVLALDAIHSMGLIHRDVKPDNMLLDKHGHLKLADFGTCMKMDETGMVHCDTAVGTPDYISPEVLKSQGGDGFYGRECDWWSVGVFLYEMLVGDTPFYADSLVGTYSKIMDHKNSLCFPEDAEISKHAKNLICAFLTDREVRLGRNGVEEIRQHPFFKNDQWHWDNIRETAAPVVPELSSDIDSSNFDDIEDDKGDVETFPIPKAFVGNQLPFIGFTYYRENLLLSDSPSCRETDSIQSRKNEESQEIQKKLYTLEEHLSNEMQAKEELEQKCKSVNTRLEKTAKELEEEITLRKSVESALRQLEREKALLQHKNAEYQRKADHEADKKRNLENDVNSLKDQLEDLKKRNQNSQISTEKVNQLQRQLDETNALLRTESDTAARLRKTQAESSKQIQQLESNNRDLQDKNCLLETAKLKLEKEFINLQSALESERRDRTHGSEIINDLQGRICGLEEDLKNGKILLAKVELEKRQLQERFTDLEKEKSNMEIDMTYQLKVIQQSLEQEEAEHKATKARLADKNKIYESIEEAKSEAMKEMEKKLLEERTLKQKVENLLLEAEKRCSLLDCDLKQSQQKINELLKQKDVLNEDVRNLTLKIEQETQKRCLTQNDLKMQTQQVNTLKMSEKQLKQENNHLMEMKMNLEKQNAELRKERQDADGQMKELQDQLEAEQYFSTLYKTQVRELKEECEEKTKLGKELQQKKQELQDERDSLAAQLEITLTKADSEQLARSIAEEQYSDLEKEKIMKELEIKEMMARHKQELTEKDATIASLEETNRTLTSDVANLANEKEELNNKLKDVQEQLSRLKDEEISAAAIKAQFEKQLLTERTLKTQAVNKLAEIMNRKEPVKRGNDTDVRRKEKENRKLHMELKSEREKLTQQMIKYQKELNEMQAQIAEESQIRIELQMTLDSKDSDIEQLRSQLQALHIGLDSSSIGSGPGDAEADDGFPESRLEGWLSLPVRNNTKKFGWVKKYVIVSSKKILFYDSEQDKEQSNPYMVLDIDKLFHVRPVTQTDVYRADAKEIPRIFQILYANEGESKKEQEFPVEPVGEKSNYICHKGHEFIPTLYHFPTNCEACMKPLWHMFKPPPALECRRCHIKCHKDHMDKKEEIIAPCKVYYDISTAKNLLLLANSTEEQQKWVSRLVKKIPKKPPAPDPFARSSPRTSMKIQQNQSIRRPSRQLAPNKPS

As to `COc1cccc([C@@H](C)NC(=O)c2ccc3c(c2)OC(C)c2cnccc2-3)c1` (mixture of isomers), half-maximal inhibition in assay [1] (IC50) required 15 nM.
`CCN1CCC[C@H]1CNC(=O)c1cccc(CNC(=O)c2ccc3c(c2)C(C)Oc2cnccc2-3)c1` (mixture of isomers): half-maximal inhibition in assay [1] (IC50) required 1.2 nM.
On the same count and under the same terms, with `COc1cccc([C@@H](C)NC(=O)c2ccc3c(c2)C(C2CC2)Oc2cnccc2-3)c1` (some centres not stated) the figure was 4.1 nM.
The same measure, in the same setting: with `COc1cccc([C@@H](C)NC(=O)c2ccc3c(c2)COc2cnc(N)cc2-3)c1` the figure was 171 nM.
The same measure, in the same setting: with `CCC1Oc2cnccc2-c2ccc(C(=O)N[C@H](C)c3cccc(OC)c3)cc21` (stereo in doubt; 19) the figure was 0.67 nM.
`C[C@H]1CNCCCN1S(=O)(=O)c1cccc2cncc(F)c12` yielded a 50% inhibitory concentration (IC50) in assay [2] of 20 nM.
`COc1cccc([C@@H](C)NC(=O)c2ccc3c(c2)COc2cncnc2-3)c1` gave an IC50 in assay [1] of 38 nM.
On the same count and under the same terms, with `N[C@@H](C(=O)Nc1ccc2c(c1)OCc1cnccc1-2)c1ccccc1` the figure was 16 nM.
As for `N[C@@H](COc1ccc2c(c1)OCc1cnccc1-2)Cc1ccccc1`, in assay [1], the IC50 came to 71 nM.
The same measure, in the same setting: with `COc1cccc([C@@H](C)NC(=O)c2ccc3c(c2)C(C)Oc2cnccc2-3)c1` (some centres not stated) the figure was 0.49 nM.
Still for that read-out and setting: with `N[C@H](Cc1ccccc1)C(=O)Nc1ccc2c(c1)OCc1cnccc1-2` the figure was 19 nM; with `CCC1Oc2cnccc2-c2ccc(C(=O)N[C@H](C)c3cccc(OC)c3)cc21` (mixture of isomers), 0.63 nM; with `CCC1Oc2cnccc2-c2ccc(C(=O)N[C@H](C)c3cccc(OC)c3)cc21` (stereo in doubt; 18), 2 nM.
The same measure, in the same setting: with `O=C(Cc1ccccc1)Nc1ccc2c(c1)OCc1cnccc1-2` the figure was 140 nM; with `CCNC(=O)c1cc(CNC(=O)c2ccc3c(c2)C(CC)Oc2cnccc2-3)ccc1F` (racemic), 20 nM; with `COc1cccc(C(C)NC(=O)c2ccc3c(c2)OCc2cnccc2-3)n1` (configuration not stated), 27 nM.
In turn, `C[C@@H](NC(=O)c1ccc2c(c1)OCc1cnccc1-2)c1ccccc1` yielded an IC50 in assay [1] of 18 nM. Compared with the last molecule, the IC50 is about 1.5-fold lower.

In general, IC50 refers to the concentration that inhibits the measured activity by half.
